≈ marks a conversion by molar mass, not a printed value.
Tested on: P388
Assay: Cytotoxicity against mouse P388 cells
Format: functional, cell-based

## C=C(CC[C@@H](C)[C@H]1CC[C@H]2[C@@H]3C[C@@H](O)C4=C[C@@H](O)CC[C@]4(C)[C@H]3CC[C@]12C)C(C)C
  IC50: 1 µg/mL (≈ 2.41 µM)

Reference: ChEMBL document CHEMBL1159224, “A new cytotoxic dihydroxy sterol from the soft coral Alcyonium patagonicum” (J Nat Prod, 1995)
